Our source for the fold induction values is US10766869B2, “Triazoles for the treatment of demyelinating dieases” (Vertex Pharmaceuticals Incorporated, priority 2015, dated 2020).

The assay has as its system primary rat mixed cortical cells. In words: In vitro myelination assay (MBP positive myelin strands, fold myelin pixels above background). It is filed as cell-based. The conditions noted are these: Rattus norvegicus, relative to baseline of no added compound, read-out: Fold myelin pixels above background; for fold induction at 1 µM: 1.0 μM compound; for fold induction at 10 µM: 10.0 μM compound. The essentials: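 Fourteen-day treatment of primary P1 rat mixed cortical cultures, re-dosed at days 6 and 10, at 1.0 μM and 10.0 μM. MBP immunofluorescence was imaged at 10× and myelin strands quantified by software, normalised to untreated wells as fold above background.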

`Cc1cc(Nc2ncn(-c3cnccn3)n2)cc(N2CCC(C3COC3)CC2)c1` [Compound 521, N-[3-methyl-5-[4-(oxetan-3-yl)-1-piperidyl]phenyl]-1-pyrazin-2-yl-1,2,4-triazol-3-amine]: the fold induction at 1 µM fell in the range of 100 to 1000 and the fold induction at 10 µM was in the range of 100 to 1000.
As to `Cc1cc(Nc2ncn(-c3cccc(F)c3)n2)cc(N2CCC(C3COC3)CC2)c1` [Compound 522, 1-(3-fluorophenyl)-N-[3-methyl-5-[4-(oxetan-3-yl)-1-piperidyl]phenyl]-1,2,4-triazol-3-amine], the fold induction at 1 µM lay in the range of 100 to 1000 and the fold induction at 10 µM lay in the range of 100 to 1000.
Regarding `CC(C)c1cc(Nc2ncn(-c3cccc(F)c3)n2)cc(N2CCN(C3COC3)CC2)c1` [Compound 523, 1-(3-fluorophenyl)-N-[3-isopropyl-5-[4-(oxetan-3-yl)piperazin-1-yl]phenyl]-1,2,4-triazol-3-amine], the fold induction at 1 µM lay within 100 to 1000 and the fold induction at 10 µM is no more than 1.
On the same counts, the results for `Fc1cccc(-n2cnc(Nc3cc(C(F)F)cc(N4CCN(C5COC5)CC4)n3)n2)c1` [Compound 525, 4-(difluoromethyl)-N-[1-(3-fluorophenyl)-1,2,4-triazol-3-yl]-6-[4-(oxetan-3-yl)piperazin-1-yl]pyridin-2-amine] are 100 to 1000 and 10 to 100.
As to `FC(F)c1cc(Nc2ncn(-c3ccccc3)n2)nc(N2CCN(C3COC3)CC2)c1` [Compound 526, 4-(difluoromethyl)-6-[4-(oxetan-3-yl)piperazin-1-yl]-N-(1-phenyl-1,2,4-triazol-3-yl)pyridin-2-amine], the fold induction at 1 µM was 100 to 1000 and the fold induction at 10 µM was in the range of 10 to 100.
The matching figures for `Cc1cc(Nc2ncn(-c3cc(F)cc(F)c3)n2)cc(N2CC3CC(C2)O3)c1` [Compound 527, 1-(3,5-difluorophenyl)-N-[3-methyl-5-(6-oxa-3-azabicyclo[3.1.1]heptan-3-yl)phenyl]-1,2,4-triazol-3-amine]: 100 to 1000 and 100 to 1000.
On the same counts, the results for `Cc1cc(Nc2ncn(-c3cc(F)cc(F)c3)n2)cc(N2CCC3OCCC3C2)c1` (centres unmarked) [Compound 528, N-[3-(3,3a,4,6,7,7a-hexahydro-2H-furo[3,2-c]pyridin-5-yl)-5-methyl-phenyl]-1-(3,5-difluorophenyl)-1,2,4-triazol-3-amine] are 100 to 1000 and 100 to 1000.
In the case of `Cc1cc(Nc2ncn(-c3cc(F)cc(F)c3)n2)nc(N2CCNCC2)c1` [Compound 529, N-[1-(3,5-difluorophenyl)-1,2,4-triazol-3-yl]-4-methyl-6-piperazin-1-yl-pyridin-2-amine], the fold induction at 1 µM was 1 to 10 and the fold induction at 10 µM is no more than 1.
On the same counts, the results for `Cc1cc(Nc2ncn(-c3cc(F)cc(F)c3)n2)cc(N2CCN([C@H]3CCOC3)CC2)c1` [Compound 530, 1-(3,5-difluorophenyl)-N-[3-methyl-5-[4-[(3S)-tetrahydrofuran-3-yl]piperazin-1-yl]phenyl]-1,2,4-triazol-3-amine] are 100 to 1000 and 100 to 1000.
The matching figures for `Cc1cc(Nc2ncn(-c3cc(F)cc(F)c3)n2)cc(N2CCN([C@@H]3CCOC3)CC2)c1` [Compound 531, 1-(3,5-difluorophenyl)-N-[3-methyl-5-[4-[(3R)-tetrahydrofuran-3-yl]piperazin-1-yl]phenyl]-1,2,4-triazol-3-amine]: 100 to 1000 and 100 to 1000.
The matching figures for `FC(F)c1cc(Nc2ncn(-c3ccccn3)n2)nc(N2CCN(C3COC3)CC2)c1` [Compound 532, 4-(difluoromethyl)-6-[4-(oxetan-3-yl)piperazin-1-yl]-N-[1-(2-pyridyl)-1,2,4-triazol-3-yl]pyridin-2-amine]: 10 to 100 and 10 to 100.
For the compound `Cc1cc(Nc2ncn(-c3cc(F)cc(F)c3)n2)nc(N2CCN(C(=O)OC(C)(C)C)CC2)c1` [Compound 533, tert-butyl 4-[6-[[1-(3,5-difluorophenyl)-1,2,4-triazol-3-yl]amino]-4-methyl-2-pyridyl]piperazine-1-carboxylate], the fold induction at 1 µM is 10 to 100 and the fold induction at 10 µM fell in the range of 1 to 10.
The matching figures for `CC(=O)OCC(C)(CO)N1CCN(c2cc(C)cc(Nc3ncn(-c4cc(F)cc(F)c4)n3)c2)CC1` (centres unmarked) [Compound 534, [2-[4-[3-[[1-(3,5-difluorophenyl)-1,2,4-triazol-3-yl]amino]-5-methyl-phenyl]piperazin-1-yl]-3-hydroxy-2-methyl-propyl] acetate]: 1 to 10 and no more than 1.
The matching figures for `Cc1cc(Nc2ncn(-c3cncnc3)n2)cc(N2CCN(C3COC3)CC2)c1` [Compound 535, N-[3-methyl-5-[4-(oxetan-3-yl)piperazin-1-yl]phenyl]-1-pyrimidin-5-yl-1,2,4-triazol-3-amine]: 1 to 10 and 1 to 10.
Turning to `CC(C)c1cc(Nc2ncn(-c3cnccn3)n2)cc(N2CCN(C3COC3)CC2)c1` [Compound 536, N-[3-isopropyl-5-[4-(oxetan-3-yl)piperazin-1-yl]phenyl]-1-pyrazin-2-yl-1,2,4-triazol-3-amine], the fold induction at 1 µM was 100 to 1000 and the fold induction at 10 µM lay in the range of 100 to 1000.
Consider `Cc1cc(Nc2ncn(-c3cc(F)cc(F)c3)n2)nc(N2CC(N3CCOCC3)C2)c1` [Compound 537, N-[1-(3,5-difluorophenyl)-1,2,4-triazol-3-yl]-4-methyl-6-(3-morpholinoazetidin-1-yl)pyridin-2-amine], for which the fold induction at 1 µM is 1 to 10 and the fold induction at 10 µM is no more than 1.
The matching figures for `Cc1cc(Nc2ncn(-c3cccc(F)c3)n2)nc(N2CC(N3CCOCC3)C2)c1` [Compound 538, N-[1-(3-fluorophenyl)-1,2,4-triazol-3-yl]-4-methyl-6-(3-morpholinoazetidin-1-yl)pyridin-2-amine]: 1 to 10 and 1 to 10.
As for `c1cnc(-n2cnc(Nc3cc(C4CC4)cc(N4CC(N5CCOCC5)C4)c3)n2)cn1` [Compound 539, N-[3-cyclopropyl-5-(3-morpholinoazetidin-1-yl)phenyl]-1-pyrazin-2-yl-1,2,4-triazol-3-amine], the fold induction at 1 µM lay within 10 to 100 and the fold induction at 10 µM was in the range of 10 to 100.
`Fc1cc(F)cc(-n2cnc(Nc3cc(C(F)(F)F)cc(N4CCN(C5COC5)CC4)n3)n2)c1` [Compound 540, N-[1-(3,5-difluorophenyl)-1,2,4-triazol-3-yl]-6-[4-(oxetan-3-yl)piperazin-1-yl]-4-(trifluoromethyl)pyridin-2-amine]: the fold induction at 1 µM fell in the range of 10 to 100 and the fold induction at 10 µM fell in the range of 100 to 1000.
The matching figures for `Cc1cc(Nc2ncn(-c3cc(F)cc(F)c3)n2)cc(N2CCCC3(COC3)C2)c1` [Compound 541, 1-(3,5-difluorophenyl)-N-[3-methyl-5-(2-oxa-8-azaspiro[3.5]nonan-8-yl)phenyl]-1,2,4-triazol-3-amine]: no more than 1 and 1 to 10.
The matching figures for `Cc1cc(Nc2ncn(-c3cc(F)cc(F)c3)n2)cc(N2CC(N3CCCC3=O)C2)c1` [Compound 542, 1-[1-[3-[[1-(3,5-difluorophenyl)-1,2,4-triazol-3-yl]amino]-5-methyl-phenyl]azetidin-3-yl]pyrrolidin-2-one]: 10 to 100 and 10 to 100.
On the same counts, the results for `Cc1cc(Nc2ncn(-c3cc(F)cc(F)c3)n2)cc(N2CCOC3(CCC3)C2)c1` [Compound 543, 1-(3,5-difluorophenyl)-N-[3-methyl-5-(9-oxa-6-azaspiro[3.5]nonan-6-yl)phenyl]-1,2,4-triazol-3-amine] are 1 to 10 and 1 to 10.
Take `CCc1cc(Nc2ncn(-c3cncnc3)n2)cc(N2CC(N3CCOCC3)C2)c1` [Compound 544, N-[3-ethyl-5-(3-morpholinoazetidin-1-yl)phenyl]-1-pyrimidin-5-yl-1,2,4-triazol-3-amine]: the fold induction at 1 µM is 1 to 10 and the fold induction at 10 µM is 10 to 100.
On the same counts, the results for `Fc1cccc(-n2cnc(Nc3cc(C(F)(F)F)cc(N4CCN(C5COC5)CC4)n3)n2)c1` [Compound 545, N-[1-(3-fluorophenyl)-1,2,4-triazol-3-yl]-6-[4-(oxetan-3-yl)piperazin-1-yl]-4-(trifluoromethyl)pyridin-2-amine] are 10 to 100 and 10 to 100.
On the same counts, the results for `Fc1ccc(-n2cnc(Nc3cc(C(F)(F)F)cc(N4CCN(C5COC5)CC4)n3)n2)cc1F` [Compound 546, N-[1-(3,4-difluorophenyl)-1,2,4-triazol-3-yl]-6-[4-(oxetan-3-yl)piperazin-1-yl]-4-(trifluoromethyl)pyridin-2-amine] are 1 to 10 and 10 to 100.
On the same counts, the results for `FC(F)(F)c1cc(Nc2ncn(-c3ccccc3)n2)nc(N2CCN(C3COC3)CC2)c1` [Compound 547, 6-[4-(oxetan-3-yl)piperazin-1-yl]-N-(1-phenyl-1,2,4-triazol-3-yl)-4-(trifluoromethyl)pyridin-2-amine] are 100 to 1000 and 10 to 100.
Turning to `FC(F)(F)c1cc(Nc2ncn(-c3ccccn3)n2)nc(N2CCN(C3COC3)CC2)c1` [Compound 548, 6-[4-(oxetan-3-yl)piperazin-1-yl]-N-[1-(2-pyridyl)-1,2,4-triazol-3-yl]-4-(trifluoromethyl)pyridin-2-amine], the fold induction at 1 µM is 1 to 10 and the fold induction at 10 µM is 1 to 10.
As for `CCc1cc(Nc2ncn(-c3cncnc3)n2)cc(N2CCN(C3COC3)CC2)c1` [Compound 549, N-[3-ethyl-5-[4-(oxetan-3-yl)piperazin-1-yl]phenyl]-1-pyrimidin-5-yl-1,2,4-triazol-3-amine], the fold induction at 1 µM was 1 to 10 and the fold induction at 10 µM fell in the range of 10 to 100.
